Laboratory results as given in patent US12708632B2 (Jazz Pharmaceuticals Research UK Limited, priority 2020, dated 2026).

Tested on: seizures associated with Cortical Dysplasia and Cortical Brain Malformation
Assay: Open label, expanded-access program of botanically derived purified CBD: caregiver-diary seizure frequency
Type: in vivo, human patients
Design: reduction in atonic seizures over the treatment period / reduction in tonic seizures over the treatment period / reduction in focal seizures without impairment over the treatment period: concentration or dose not given beside the values
Details: for Seizure frequency: Tonic-clonic: baseline 13.0; for Seizure frequency: Myoclonic: baseline 4.0
Description: Subjects were required to be on one or more AEDs at stable doses for a minimum of two weeks prior to baseline and to have stable vagus nerve stimulation (VNS) settings and ketogenic diet ratios for a minimum of four weeks prior to baseline.
Dose was then increased weekly by 5 mg/kg/day to a goal of 20 to 25 mg/kg/day.
A maximum dose of 50 mg/kg/day could be utilised for patients who were tolerating the medication but had not achieved seizure control; these patients had further weekly titration by 5 mg/kg/day.
Modifications were made to concomitant AEDs as per clinical indication.
Seizure frequency, intensity, and duration were recorded by caregivers in a diary during a baseline period of at least 28 days. Changes in seizure frequency relative to baseline were calculated after at least 2 weeks and at defined timepoints of treatment.
Patients may be defined as responders if they had more than 50% reduction in seizure frequency compared to baseline. the percent change in seizure frequency was calculated as follows: […]
The percent change of seizure frequency may be calculated for any time interval where seizure number has been recorded. For the purpose of this example the percent change of seizure frequency for the end of the treatment period was calculated as follows: […]

Which results are given for C=C(C)[C@@H]1CCC(C)=C[C@H]1c1c(O)cc(CCCCC)cc1O [CBD, cannabidiol]?
Seizure frequency: Atonic (Patient 1, 2 weeks, CBD 10.0 mg/kg/day, baseline 2.0): 0.0 seizures per week; Seizure frequency: Tonic-clonic (Patient 1, 2 weeks, CBD 10.0 mg/kg/day): 12.0 seizures per week; Seizure frequency: Atonic (Patient 1, 4 weeks, CBD 20.0 mg/kg/day, baseline 2.0): 1.0 seizures per week; Seizure frequency: Tonic-clonic (Patient 1, 4 weeks, CBD 20.0 mg/kg/day): 25.0 seizures per week; Seizure frequency: Atonic (Patient 1, 8 weeks, CBD 25.0 mg/kg/day, baseline 2.0): 3.0 seizures per week; Seizure frequency: Tonic-clonic (Patient 1, 8 weeks, CBD 25.0 mg/kg/day): 17.0 seizures per week; Seizure frequency: Atonic (Patient 1, 12 weeks, CBD 25.0 mg/kg/day, baseline 2.0): 1.0 seizures per week; Seizure frequency: Tonic-clonic (Patient 1, 12 weeks, CBD 25.0 mg/kg/day): 16.0 seizures per week; reduction in atonic seizures over the treatment period (Patient 1, treated for 12 weeks, vs baseline): 50%; Seizure frequency: Tonic (Patient 2, 12 weeks, CBD 5.0 mg/kg/day, baseline 140.0): 70.0 seizures per week; reduction in tonic seizures over the treatment period (Patient 2, treated for 12 weeks, vs baseline): 50%; Seizure frequency: Myoclonic (Patient 3, 4 weeks, CBD 20.0 mg/kg/day): 0.0 seizures per week; Seizure frequency: Tonic (Patient 3, 4 weeks, CBD 20.0 mg/kg/day, baseline 20.0): 4.0 seizures per week; Seizure frequency: Atonic (Patient 3, 4 weeks, CBD 20.0 mg/kg/day, baseline 24.0): 0.0 seizures per week; Seizure frequency: Myoclonic (Patient 3, 8 weeks, CBD 25.0 mg/kg/day): 0.0 seizures per week; Seizure frequency: Tonic (Patient 3, 8 weeks, CBD 25.0 mg/kg/day, baseline 20.0): 200.0 seizures per week; Seizure frequency: Atonic (Patient 3, 8 weeks, CBD 25.0 mg/kg/day, baseline 24.0): 0.0 seizures per week; Seizure frequency: Myoclonic (Patient 3, 12 weeks, CBD 14.8 mg/kg/day): 56.0 seizures per week; Seizure frequency: Tonic (Patient 3, 12 weeks, CBD 14.8 mg/kg/day, baseline 20.0): 140.0 seizures per week; Seizure frequency: Atonic (Patient 3, 12 weeks, CBD 14.8 mg/kg/day, baseline 24.0): 12.0 seizures per week; Seizure frequency: Myoclonic (Patient 3, 24 weeks, CBD 9.7 mg/kg/day): 28.0 seizures per week; Seizure frequency: Tonic (Patient 3, 24 weeks, CBD 9.7 mg/kg/day, baseline 20.0): 140.0 seizures per week; Seizure frequency: Atonic (Patient 3, 24 weeks, CBD 9.7 mg/kg/day, baseline 24.0): 12.0 seizures per week; Seizure frequency: Myoclonic (Patient 3, 36 weeks, CBD 10.9 mg/kg/day): 0.0 seizures per week; Seizure frequency: Tonic (Patient 3, 36 weeks, CBD 10.9 mg/kg/day, baseline 20.0): 60.0 seizures per week; Seizure frequency: Atonic (Patient 3, 36 weeks, CBD 10.9 mg/kg/day, baseline 24.0): 16.0 seizures per week; Seizure frequency: Myoclonic (Patient 3, 48 weeks, CBD 10.6 mg/kg/day): 20.0 seizures per week; Seizure frequency: Tonic (Patient 3, 48 weeks, CBD 10.6 mg/kg/day, baseline 20.0): 40.0 seizures per week; Seizure frequency: Atonic (Patient 3, 48 weeks, CBD 10.6 mg/kg/day, baseline 24.0): 8.0 seizures per week; Seizure frequency: Myoclonic (Patient 3, 60 weeks, CBD 17.1 mg/kg/day): 1.0 seizures per week; Seizure frequency: Tonic (Patient 3, 60 weeks, CBD 17.1 mg/kg/day, baseline 20.0): 28.0 seizures per week; Seizure frequency: Atonic (Patient 3, 60 weeks, CBD 17.1 mg/kg/day, baseline 24.0): 1.0 seizures per week; Seizure frequency: Myoclonic (Patient 3, 72 weeks, CBD 16.2 mg/kg/day): 1.0 seizures per week; Seizure frequency: Tonic (Patient 3, 72 weeks, CBD 16.2 mg/kg/day, baseline 20.0): 40.0 seizures per week; Seizure frequency: Atonic (Patient 3, 72 weeks, CBD 16.2 mg/kg/day, baseline 24.0): 1.0 seizures per week; Seizure frequency: Myoclonic (Patient 3, 96 weeks, CBD 24.5 mg/kg/day): 16.0 seizures per week; Seizure frequency: Tonic (Patient 3, 96 weeks, CBD 24.5 mg/kg/day, baseline 20.0): 28.0 seizures per week; Seizure frequency: Atonic (Patient 3, 96 weeks, CBD 24.5 mg/kg/day, baseline 24.0): 2.0 seizures per week; Seizure frequency: Myoclonic (Patient 3, 120 weeks, CBD 17.7 mg/kg/day): 16.0 seizures per week; Seizure frequency: Tonic (Patient 3, 120 weeks, CBD 17.7 mg/kg/day, baseline 20.0): 6.0 seizures per week; Seizure frequency: Atonic (Patient 3, 120 weeks, CBD 17.7 mg/kg/day, baseline 24.0): 4.0 seizures per week; Seizure frequency: Myoclonic (Patient 3, 132 weeks, CBD 17.3 mg/kg/day): 16.0 seizures per week; Seizure frequency: Tonic (Patient 3, 132 weeks, CBD 17.3 mg/kg/day, baseline 20.0): 6.0 seizures per week; Seizure frequency: Atonic (Patient 3, 132 weeks, CBD 17.3 mg/kg/day, baseline 24.0): 4.0 seizures per week; Seizure frequency: Myoclonic (Patient 3, 144 weeks, CBD 19.9 mg/kg/day): 40.0 seizures per week; Seizure frequency: Tonic (Patient 3, 144 weeks, CBD 19.9 mg/kg/day, baseline 20.0): 56.0 seizures per week; Seizure frequency: Atonic (Patient 3, 144 weeks, CBD 19.9 mg/kg/day, baseline 24.0): 2.0 seizures per week; reduction in atonic seizures over the treatment period (Patient 3, treated for 144 weeks, vs baseline): 91.7%; Seizure frequency: Tonic (Patient 4, 4 weeks, CBD 20.0 mg/kg/day, baseline 196.0): 60.0 seizures per week; Seizure frequency: Tonic (Patient 4, 8 weeks, CBD 25.0 mg/kg/day, baseline 196.0): 40.0 seizures per week; Seizure frequency: Tonic (Patient 4, 12 weeks, CBD 30.0 mg/kg/day, baseline 196.0): 80.0 seizures per week; Seizure frequency: Tonic (Patient 4, 24 weeks, CBD 50.0 mg/kg/day, baseline 196.0): 24.0 seizures per week; Seizure frequency: Tonic (Patient 4, 36 weeks, CBD 50.0 mg/kg/day, baseline 196.0): 32.0 seizures per week; Seizure frequency: Tonic (Patient 4, 48 weeks, CBD 50.0 mg/kg/day, baseline 196.0): 54.0 seizures per week; Seizure frequency: Tonic (Patient 4, 60 weeks, CBD 50.0 mg/kg/day, baseline 196.0): 24.0 seizures per week; Seizure frequency: Tonic (Patient 4, 72 weeks, CBD 49.0 mg/kg/day, baseline 196.0): 24.0 seizures per week; Seizure frequency: Tonic (Patient 4, 84 weeks, CBD 46.0 mg/kg/day, baseline 196.0): 36.0 seizures per week
